The record followed here is patent US20230143751A1, “Aromatic Compound And Use Thereof In Preparing Antineoplastic Drugs” (Shanghai Zheye Biotechnology Co. Ltd., priority 2020, published 2023).

A short description of data set [1]: Acute toxicity test, single oral dose in SD rats. As to conditions: SD rats, single oral gavage, 500, 1000, 2000 mg/kg. It is filed as in vivo. As to the method:
(§1) Test samples: Compound 3-2, and Compound 3-6.
(§2) Animal species and number: SD rat; 6 animals per group (half male and half female).
(§3) Administration mode: oral administration by gavage.
Animal grouping and administration dose: vehicle blank group, Compound 3-2 group (500 mg/kg, 1000 mg/kg, 2000 mg/kg), Compound 3-6 group (500 mg/kg, 1000 mg/kg, 2000 mg/kg).
Administration frequency: once.
(§4) Death, morbidity, respiration, secretions, feces, and diet, drinking situation and so on were observed, and the changes in body weight of the rats during the administration period were recorded. The contents of detailed clinical observation included but were not limited to behavioral activity, skin, coat, eyes, ears, nose, abdomen, external genitalia, anus, extremities, feet, and respiration. The animals in each group were euthanized at the end of observation period, and all animals were dissected and subjected to gross observation.

For the next data set, the system named is MIA PaCa-2 cells. The experiment in a line: Cell proliferation activity of MIA PaCa-2 by CellTiter-Glo reagent. It is filed as cell-based. As to conditions: for IC50: Homo sapiens, MIA PaCa-2. The gist of the method: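 Cells seeded at 2000-3000/well, incubated overnight, then exposed to compound gradient dilutions in DMEM for 72 h at 37° C, 5% CO2. Viability read by CellTiter-Glo luminescence; IC50 fitted from the proliferation inhibition curve.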
In general terms: ATP-based viability assays read luminescence as a measure of living cells.

Data set [2] deals with NCI-H358-derived xenograft tumor. The experiment in a line: Pharmacodynamics study of NCI-H358-derived xenograft tumor model, combination with Afatinib or Trametinib (test 10). It is filed as in vivo, nude mice. As to conditions: i.g. QD×21 days, 3-2 10 mg/kg, Afatinib 10 mg/kg, Trametinib 0.1 mg/kg. The protocol: Animal species and number: Balb/c Nude; 6 animals per group. Test samples: […] Test groups: blank solvent control group; […] NCI-H358 tumor cells in logarithmic growth phase were cultured in vitro and collected, and inoculated subcutaneously into the right back of nude mice at a quantity of 5×10^6 cells/each. When the tumor volume reached 150-300 mm^3, the tumor-bearing nude mice were randomly grouped. Subsequently, the animals in each group were administered, and the day of the first administration was defined as day 1 of the test. Administration frequency: once a day. General state observation: observation time and frequency: once a day; observation indexes or contents: including but not limited to administration location, appearance and signs, general behavioral activities, mental status, death and other abnormal performance of the animals. The animals were euthanized at the end of the test. Tumor volume calculation: V=½×long diameter×short diameter^2 (mm^3).

Data set [3] in a line: Analysis regarding therapeutic safety window. As to conditions: in vivo, oral, 5 days.
Data set [4] deals with MIA PaCa-2-derived xenograft tumor. The experiment in a line: Pharmacodynamic effect study of MIA PaCa-2-derived xenograft tumor model (test 11). It is filed as in vivo, nude mice. As to conditions: MIA PaCa-2 xenograft, 20 mg/kg i.g. QD×21 days. As to the method:
Animal species and number: Balb/c Nude; 6 animals per group.
Test samples: Compound 3-2, and Compound TM-1.
Test groups: blank solvent control group;
Compound 3-2 (20 mg/kg, i.g., QD×21 days);
Compound TM-1 (20 mg/kg, i.g., QD×21 days).
Animal model establishment: MIA PaCa-2 tumor cells in logarithmic growth phase were cultured in vitro and collected, and inoculated subcutaneously into the right back of nude mice at a quantity of 5×10^6 cells/each. When the tumor volume reached 150-300 mm^3, the tumor-bearing nude mice were randomly grouped. Subsequently, the animals in each group were administered, and the day of the first administration was defined as day 1 of the test.
Administration frequency: once a day.
General state observation: observation time and frequency: once a day; observation indexes or contents: including but not limited to administration location, appearance and signs, general behavioral activities, mental status, death and other abnormal performance of the animals. The animals were euthanized at the end of the test.
Tumor volume calculation: V=½×long diameter×short diameter^2 (mm^3).

For the next data set, the system named is NCI-H358 cells. The experiment in a line: Cell proliferation activity of NCI-H358 by CellTiter-Glo reagent. The format is cell-based. As to conditions: Homo sapiens, NCI-H358; test 8, method of test 3; read-out: IC50 of proliferation inhibitory activity of the compound on NCI-H358 cell line. The gist of the method: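 NCI-H358 cells seeded at 2000–3000 per well and grown overnight at 37° C, 5% CO2 before compound exposure. Viability read by CellTiter-Glo luminescence; IC50 from curve fitting.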

Data set [5] is described as follows: Safety test for repeated administration for 14 days in SD rats. As to conditions: oral gavage once a day for 14 days, 50, 150, 400 mg/kg. It is filed as in vivo. The protocol:
as §1, §2, §3
Animal grouping and administration dose: vehicle blank group, Compound 3-2 group (50 mg/kg, 150 mg/kg, 400 mg/kg), Compound 3-6 group (50 mg/kg, 150 mg/kg, 400 mg/kg).
Administration frequency: once a day for 14 days.
as §4, with “General clinical observations were performed 2 times a day (once in the morning and once in the afternoon) during the test period. Death,” for “Death,”, “of administration” for “of observation”

As a reminder, the MTD is the largest dose that counted as tolerated.

Like-named read-outs stand apart in the source and are kept apart here.

Turning to `C=CC(=O)N1CCN(c2nc(=O)n(-c3c(C)ccnc3C(C)C)c3nc(-c4ccccc4C=C)c(Cl)cc23)[C@@H](C)C1` [Compound 3-2], the “death or morbidity after single dose (in words)” value in data set [1] was “No animals in each group were dead or close to death”. Also, the MTD in data set [1] (both sexes, rat, in vivo, read-out: maximum tolerated dose (MTD)) was ≥ 2000 mg/kg. Besides, the “anti-cell proliferation activity against KRAS G12C mutant type cells MIA PaCa-2 (in words)” value in the data set on MIA PaCa-2 cells (72 h, CellTiter-Glo) is “significant anti-cell proliferation activity”. The IC50 in the data set with MIA PaCa-2 cells (72 h, CellTiter-Glo, read-out: IC50 value of cell proliferation inhibitory activity of the compound on MIA PaCa-2) is < 50 nM; in the data set on MIA PaCa-2 cells (test 12, method of test 2, read-out: IC50 of proliferation inhibitory activity of the compound on MIA Paca-2 cell line), ≤ 15 nM; in the data set on NCI-H358 cells it was 10 nM. For the same compound, the “proliferation inhibitory activity on MIA Paca-2 cell line compared with Compound TM-2 (in words)” value in the data set with MIA PaCa-2 cells (test 12) is listed as “remarkable better”. Further, the results for the “Tumor inhibition rate (%)” value in data set [2] and in data set [4] were “++ (“++” represents a tumor inhibition rate of 130%˜200%)” and “+++ (“+++” represents a tumor inhibition rate of >140%)”, respectively. Moreover, the “therapeutic safety window: ratio of toxic dose to effective dose” value in data set [3] was “greater than 80”. For the same compound, the “water and food intake, activity and body weight during the administration period (in words)” value in data set [5] was “no significant abnormality was showed”.
